Tests used:
Assay type in all cases: biochemical
[1] = target: T1, human OGA (Homo sapiens, UniProt O60502); experiment: Determination of IC50 values for inhibition of human OGA
T1 construct: made in house
T1 sequence (O60502 1-916): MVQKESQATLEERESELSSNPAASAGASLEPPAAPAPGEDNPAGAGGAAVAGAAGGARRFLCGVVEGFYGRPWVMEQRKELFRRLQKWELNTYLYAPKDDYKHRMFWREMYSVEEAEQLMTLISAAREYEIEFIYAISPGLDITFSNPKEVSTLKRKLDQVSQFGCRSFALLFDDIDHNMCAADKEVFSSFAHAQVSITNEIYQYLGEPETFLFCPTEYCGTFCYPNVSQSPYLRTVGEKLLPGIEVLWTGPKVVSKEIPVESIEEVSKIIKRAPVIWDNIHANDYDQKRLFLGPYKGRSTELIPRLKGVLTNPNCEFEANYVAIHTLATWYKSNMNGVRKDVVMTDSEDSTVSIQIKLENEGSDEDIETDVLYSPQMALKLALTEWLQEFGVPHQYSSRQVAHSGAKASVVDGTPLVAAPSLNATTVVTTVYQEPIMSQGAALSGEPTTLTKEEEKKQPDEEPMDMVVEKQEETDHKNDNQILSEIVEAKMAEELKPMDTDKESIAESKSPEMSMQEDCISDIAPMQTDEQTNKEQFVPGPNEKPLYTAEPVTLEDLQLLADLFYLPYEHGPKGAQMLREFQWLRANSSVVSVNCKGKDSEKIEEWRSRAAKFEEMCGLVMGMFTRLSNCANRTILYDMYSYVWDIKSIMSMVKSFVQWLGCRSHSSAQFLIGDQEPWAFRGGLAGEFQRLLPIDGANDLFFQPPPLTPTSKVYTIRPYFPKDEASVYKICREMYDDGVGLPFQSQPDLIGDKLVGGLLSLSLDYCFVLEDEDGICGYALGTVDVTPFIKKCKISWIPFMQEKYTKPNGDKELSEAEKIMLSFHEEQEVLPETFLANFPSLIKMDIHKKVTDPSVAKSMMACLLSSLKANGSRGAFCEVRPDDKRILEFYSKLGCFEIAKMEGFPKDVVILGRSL
Procedure: Inhibitors identified from the screen described in Example 1 were evaluated for IC50 using a procedure adapted from Biochem. J. 2009, 420, 221-227. IC50 determination was carried out using a range of inhibitor concentrations from 300 μM to 0.003 μM or 100 μM to 0.001 μM. IC50 values were calculated using XLFit 4.

[2] = system: human β-hexosaminidase [human placenta] (HexA/B); experiment: Determination of IC50 values for inhibition of human β-hexosaminidase; details: ratio
Procedure: (§1) Inhibitors identified from the screen described in Example 1 were evaluated for IC50 against human β-hexosaminidase [human placenta, Sigma-Aldrich] using a range of inhibitor concentrations from 300 μM to 0.003 μM or 100 μM to 0.001 μM and the following reaction conditions:
(§2) Reactions were carried out at room temperature for thirty minutes and then quenched through the addition of 150 μl 0.5M Na2CO3. Fluorescence readings were taken at excitation wavelength 360 nm and emission wavelength 450 nm. IC50 values were calculated using XLFit 4. The selectivity ratio for inhibition of human O-GlcNAcase over human β-hexosaminidase is defined here as:
(§3) IC50(human β-hexosaminidase)/IC50(Human OGA)

[3] = target: T2, human β-hexosaminidase [human placenta] (HexA/B); experiment: as above; details: human β-hexosaminidase, human placenta; room temperature, thirty minutes
T2 construct: other: human β-hexosaminidase, human placenta; room temperature, thirty minutes
Procedure: as §1, §2, §3

Structure (SMILES)	IC50 [1]	Selectivity: IC50(human β-hexosaminidase)/IC50(Human OGA) [2]	IC50 [3]
CCCCCCN1[C@H](CO)[C@@H](O)[C@H](O)[C@H]1CC(=O)NC [Compound A046, 2-((2R,3R,4R,5R)-1-hexyl-3,4-dihydroxy-5-(hydroxymethyl)pyrrolidin-2-yl)-N-methylacetamide]	0.0237 µM	0.42	0.0099 µM
CNC(=O)[C@H]1N[C@H](CO)[C@@H](O)[C@@H]1O [Compound A059, (2S,3R,4R,5R)-3,4-dihydroxy-5-(hydroxymethyl)-N-methylpyrrolidine-2-carboxamide]	0.007 µM	4.27	0.0299 µM
CCNC(=O)C[C@@H]1[C@@H](O)[C@H](O)[C@@H](CO)N1CCOc1ccc(Cl)cc1Cl [Compound A062, 2-((2R,3R,4R,5R)-1-(2-(2,4-dichlorophenoxy)ethyl)-3,4-dihydroxy-5-(hydroxymethyl)pyrrolidin-2-yl)-N-ethylacetamide]	0.512 µM	>585	> 300 µM
CNC(=O)C[C@@H]1[C@@H](O)[C@H](O)[C@H](CO)N1CCCc1ccccc1 [Compound A058, 2-((2R,3R,4R,5S)-3,4-dihydroxy-5-(hydroxymethyl)-1-(3-phenylpropyl)pyrrolidin-2-yl)-N-methylacetamide]	0.228 µM	0.14	0.031 µM
CC(=O)NC[C@@H]1[C@H](O)[C@H](O)[C@@H](CO)N1CCCc1ccccc1 [Compound A038, N-(((2R,3S,4R,5R)-3,4-dihydroxy-5-(hydroxymethyl)-1-(3-phenylpropyl)pyrrolidin-2-yl)methyl)acetamide]	1.3 µM	>230	> 300 µM
CNC(=O)C[C@@H]1[C@H](O)[C@H](O)[C@@H](CO)N1CCCNC(=O)OC(C)(C)C [Compound A065, tert-butyl (3-((2R,3R,4S,5R)-3,4-dihydroxy-2-(hydroxymethyl)-5-(2-(methylamino)-2-oxoethyl)pyrrolidin-1-yl)propyl)carbamate]	0.007 µM	8342	58.4 µM
CNC(=O)C[C@@H]1[C@H](O)[C@H](O)[C@@H](CO)N1CCC1CCCCC1 [Compound A041, 2-((2R,3S,4R,5R)-1-(2-cyclohexylethyl)-3,4-dihydroxy-5-(hydroxymethyl)pyrrolidin-2-yl)-N-methylacetamide]	0.014 µM	8142	114 µM
CCCCCCN1[C@H](CC(=O)NC)[C@H](O)[C@@H](O)[C@@H]1CO [Compound A032, 2-((2R,3S,4S,5S)-1-hexyl-3,4-dihydroxy-5-(hydroxymethyl)pyrrolidin-2-yl)-N-methylacetamide]	6.07 µM	>49.4	> 300 µM
CNC(=O)C[C@H]1[C@@H](O)[C@H](O)[C@H](CO)N1CCCc1ccccc1 [Compound A057, 2-((2S,3R,4R,5S)-3,4-dihydroxy-5-(hydroxymethyl)-1-(3-phenylpropyl)pyrrolidin-2-yl)-N-methylacetamide]	39.2 µM	0.11	4.26 µM
CCNC(=O)C[C@H]1N[C@H](CO)[C@@H](O)[C@H]1O [Compound A006, 2-((2R,3S,4R,5R)-3,4-dihydroxy-5-(hydroxymethyl)pyrrolidin-2-yl)-N-ethylacetamide]	1.25 µM	>234	> 300 µM
CCCCCCN1[C@@H](CO)[C@H](O)[C@H](O)[C@@H]1CC(=O)NC [Compound A024, 2-((2S,3R,4S,5S)-1-hexyl-3,4-dihydroxy-5-(hydroxymethyl)pyrrolidin-2-yl)-N-methylacetamide]	143 µM	0.31	44 µM
CCCCCCN1[C@H](CNC(C)=O)[C@H](O)[C@H](O)[C@H]1CO [Compound A035, N-(((2R,3S,4R,5R)-1-hexyl-3,4-dihydroxy-5-(hydroxymethyl)pyrrolidin-2-yl)methyl)acetamide]	3.9 µM	>76.92	> 300 µM
CCCCN1[C@H](CC(=O)NC)[C@H](O)[C@H](O)[C@H]1CO [Compound A017, 2-((2R,3S,4R,5R)-1-butyl-3,4-dihydroxy-5-(hydroxymethyl)pyrrolidin-2-yl)-N-methylacetamide]	0.056 µM	3500	196 µM
CNC(=O)C[C@@H]1[C@H](O)[C@H](O)[C@@H](CO)N1CCCCCCCCCO [Compound A009, 2-((2R,3S,4R,5R)-3,4-dihydroxy-5-(hydroxymethyl)-1-(9-hydroxynonyl)pyrrolidin-2-yl)-N-methylacetamide]	0.036 µM	5472	197 µM
CCCCCCN1[C@H](CO)[C@H](O)[C@@H](O)[C@H]1CC(=O)NCCO [Compound A030, 2-((2R,3S,4S,5R)-1-hexyl-3,4-dihydroxy-5-(hydroxymethyl)pyrrolidin-2-yl)-N-(2-hydroxyethyl)acetamide]	94.9 µM	>3.16	> 300 µM
CNC(=O)C[C@@H]1N[C@H](CO)[C@@H](O)[C@@H]1O [Compound A045, 2-((2S,3R,4R,5R)-3,4-dihydroxy-5-(hydroxymethyl)pyrrolidin-2-yl)-N-methylacetamide]	0.586 µM	4.71	2.76 µM
CCCCCCCCCN1[C@H](CC(=O)NC(C)C)[C@H](O)[C@H](O)[C@H]1CO [Compound A014, 2-((2R,3S,4R,5R)-3,4-dihydroxy-5-(hydroxymethyl)-1-nonylpyrrolidin-2-yl)-N-isopropylacetamide]	3.66 µM	>81	> 300 µM
CCCCCCN1[C@H](CO)[C@@H](O)[C@H](O)[C@@H]1CC(=O)NC [Compound A047, 2-((2S,3R,4R,5R)-1-hexyl-3,4-dihydroxy-5-(hydroxymethyl)pyrrolidin-2-yl)-N-methylacetamide]	0.926 µM	0.44	0.405 µM
CCCCCCN1[C@H](CO)[C@@H](O)[C@H](O)[C@@H]1CC(=O)NCC [Compound A054, N-ethyl-2-((2S,3R,4R,5R)-1-hexyl-3,4-dihydroxy-5-(hydroxymethyl)pyrrolidin-2-yl)acetamide]	6.98 µM	>42.98	> 300 µM
CC(C)CNC(=O)C[C@H]1N[C@H](CO)[C@@H](O)[C@H]1O [Compound A025, 2-((2R,3S,4R,5R)-3,4-dihydroxy-5-(hydroxymethyl)pyrrolidin-2-yl)-N-isobutylacetamide]	129 µM	>2.3	> 300 µM
C=CCNC(=O)C[C@@H]1[C@H](O)[C@H](O)[C@@H](CO)N1CCCCCC [Compound A039, N-allyl-2-((2R,3S,4R,5R)-1-hexyl-3,4-dihydroxy-5-(hydroxymethyl)pyrrolidin-2-yl)acetamide]	1.59 µM	>188.68	> 300 µM
O=C(C[C@@H]1[C@H](O)[C@H](O)[C@@H](CO)N1CCCc1ccccc1)NCCO [Compound A029, 2-((2R,3S,4R,5R)-3,4-dihydroxy-5-(hydroxymethyl)-1-(3-phenylpropyl)pyrrolidin-2-yl)-N-(2-hydroxyethyl)acetamide]	125 µM	>2.38	> 300 µM
CCCCCCN1[C@H](CC(=O)NCC2CCCCC2)[C@H](O)[C@H](O)[C@H]1CO [Compound A031, N-(cyclohexylmethyl)-2-((2R,3S,4R,5R)-1-hexyl-3,4-dihydroxy-5-(hydroxymethyl)pyrrolidin-2-yl)acetamide]	75.5 µM	>3.97	> 300 µM

Reference: patent US20140073801A1, “PYRROLIDINE DERIVATIVES AS SELECTIVE GLYCOSIDASE INHIBITORS AND USES THEREOF” (Summit Corporation Plc, priority 2011, published 2014)
